Measured values: patent publication US20170367390A1, “USE OF ELLAGIC ACID DIHYDRATE IN FOOD PRODUCTS AND NUTRACEUTICALS” (HALO LIFE SCIENCE, LLC, priority 2014, published 2017)
“Also recorded” adds a separate entry of the source.

Tests used:
p44/42 MAPK = experiment: p44/42 MAPK:Phos p44/42 MAPK ratio by immunocytochemistry, high-content imaging in C2C12; format: cell-based, mouse; settings: serum starved C2C12, 30 minutes; 400 nM, 0.04 nM
Description: (§1) Stimulation of AKT pathways and MAPK pathways in ellagic acid dihydrate, metformin, and insulin treated cell cultures was performed. Insulin stimulates glucose uptake into cells by increasing GLUT4 activation, and AKT, specifically phos-AKT, signaling alters GLUT4 translocation. […] Cellular assays were performed using mouse myoblast C2C12 cells. Relative protein levels of AKT:phos AKT and p44/42 MAPK:phos p44/42 MAPK were determined.
Serum starved cells (1 hr) were treated for 30 minutes with each of the tested compounds. Ratios of phosphorylated to non-phosphorylated proteins were determined using immunocytochemistry labeling (anti-AKT, anti-Phos AKT; or anti-p44/42 MAPK, anti-Phos p44/42 MAPK) on a high-content imaging system (Operetta, Perkin Elmer) using the fluorescent signal of anti-rabbit Alexa 647. Increased phosphorylation is indicated as decrease in signal of AKT:Phos AKT ratio (log 2 scale) and p44/42 MAPK:Phos p44/42 MAPK ratio (log 2 scale) relative to vehicle treated cells.

MEF cells [1] = experiment: Glucose uptake, 2-NBDG labeling, high-content imaging (Operetta), MEFs; format: cell-based, mouse
Description: (§2) Increased glucose uptake was indicated as increasing signal of 2-NBDG ([…]) in cells. Glucose uptake assays were carried out in a final incubation volume of 50 μl consisting of, 2-NBDG), (100 μM) in 1× Phosphate Buffered Saline w/Ca+, Mg+ (PBS++). The same buffer was used for washing cells. Insulin was used as a positive control. All testing compounds were prepared in 10% DMSO and diluted 1:100 for a final concentration of 0.1% DMSO (vehicle). Cells were culture to 70-90% confluence and then washed twice with PBS++. Cells were incubated for 30 minutes at 37° C. in PBS++. Nuclear stain, HCS CellMask stain (blue, Invitrogen), and/or testing compounds (ellagic acid dihydrate, insulin, or vehicle) were added. Cells were incubated for 30 min at 37° C. Cells were washed twice with PBS++ and incubated with 2-NBDG for 10 minutes. Cells were washed thrice with PBS++ and then imaged in PBS++. Alternatively, the final PBS wash was removed and cells were incubated with Accutase (Invitrogen) for 10 min at 37° C., neutralized with 10% FBS in 1×PBS, and analyzed by flow cytometry. An additional experiment was performed to measure glucose uptake in C2Cl2 cells exposed to metformin, insulin and ellagic acid dihydrate 2 (batch 2). FIG. 5C. Glucose uptake in ellagic acid dihydrate treated cell culture was measured and compared to glucose uptake under insulin or ellagic acid treatment. […] Flow cytometry results were run in triplicate with 1000 cells per batch.

AKT = experiment: AKT:Phos AKT ratio by immunocytochemistry, high-content imaging in C2C12; format: cell-based, mouse; settings: serum starved C2C12, 30 minutes; 4 nM-4 μM for insulin and ellagic acid dihydrate
Description: as §1, with “[…] Serum starved cells (1 hr) were treated for 30 minutes with each” for “Relative protein levels”, “the tested compounds.” for “AKT:phos AKT and p44/42 MAPK:phos p44/42 MAPK were determined.”

MEF cells [2] = experiment: Glucose uptake, 2-NBDG labeling, flow cytometry, MEFs; format: cell-based, mouse
Description: as §2, with “Cellular assays were performed using mouse myoblast C2C12 cells and MEF cells. […] Increased” for “Increased”

[3] = system: mouse myoblast C2C12 cells; experiment: Glucose uptake, 2-NBDG labeling, flow cytometry, C2C12; format: cell-based
Description: Cellular assays were performed using mouse myoblast C2C12 cells and MEF cells. […] Increased glucose uptake was indicated as increasing signal of 2-NBDG ([…]) in cells. Glucose uptake assays were carried out in a final incubation volume of 50 μl consisting of, 2-NBDG), (100 μM) in 1× Phosphate Buffered Saline w/Ca+, Mg+ (PBS++). The same buffer was used for washing cells. Insulin was used as a positive control. All testing compounds were prepared in 10% DMSO and diluted 1:100 for a final concentration of 0.1% DMSO (vehicle). Cells were culture to 70-90% confluence and then washed twice with PBS++. Cells were incubated for 30 minutes at 37° C. in PBS++. Nuclear stain, HCS CellMask stain (blue, Invitrogen), and/or testing compounds (ellagic acid dihydrate, insulin, or vehicle) were added. Cells were incubated for 30 min at 37° C. Cells were washed twice with PBS++ and incubated with 2-NBDG for 10 minutes. Cells were washed thrice with PBS++ and then imaged in PBS++. Alternatively, the final PBS wash was removed and cells were incubated with Accutase (Invitrogen) for 10 min at 37° C., neutralized with 10% FBS in 1×PBS, and analyzed by flow cytometry. An additional experiment was performed to measure glucose uptake in C2Cl2 cells exposed to metformin, insulin and ellagic acid dihydrate 2 (batch 2). FIG. 5C.

`O.O.O=c1oc2c(O)c(O)cc3c(=O)oc4c(O)c(O)cc1c4c23` [ellagic acid dihydrate] was tested, and the “p44/42 MAPK:Phos p44/42 MAPK ratio relative to vehicle” value (p44/42 MAPK) was “increase in p44/42 MAPK”, the “dose effect for increasing glucose uptake” value (MEF cells [1]) was “dose effect for increasing glucose uptake” and the “glucose uptake (2-NBDG signal)” value (MEF cells [1]; versus vehicle (Neg, 0.1% DMSO)) was “significantly greater than vehicle treated (Neg, 0.1% DMSO) or Insulin treated cells”. The “AKT:Phos AKT ratio (log 2 scale) relative to vehicle treated cells” value (AKT) was “increase in AKT relative to Phos-AKT signal”, the “increased glucose uptake (percent change relative to vehicle)” value (MEF cells [2]; 400 nM exposure, fibroblasts (MEFs), flow cytometry) was 47% and the “dose effect for increasing glucose uptake” value (MEF cells [2]; MEFs, flow cytometry, 2-NBDG) was “dose effect for increasing glucose uptake”. For the same molecule, the “increase in glucose uptake compared with ellagic acid or insulin” value (MEF cells [2]; MEFs, flow cytometry, Example 5) was “significantly greater increase in glucose uptake than that seen in ellagic acid (EA) or insulin treatment”, the “glucose uptake (2-NBDG signal) relative to vehicle” value (MEF cells [2]; MEFs, flow cytometry, vehicle 0.1% DMSO) was “significantly greater than vehicle treated” and the “glucose uptake relative to insulin” value (MEF cells [2]; fibroblasts (MEFs), at most concentrations tested / equal concentrations, dihydrate) was “significantly more glucose uptake relative to insulin; also recorded: exceeded the uptake induced by insulin”. The “increase in glucose uptake compared with metformin” value ([3]; C2C12, at 4000 nm, FIG. 5C (ellagic acid dihydrate batch 2)) was “greater increase in glucose uptake than metformin”, the “dose effect for increasing glucose uptake” value ([3]; C2C12, flow cytometry, 2-NBDG) was “dose effect for increasing glucose uptake” and the “glucose uptake (2-NBDG signal) relative to vehicle” value ([3]; C2C12, flow cytometry, vehicle 0.1% DMSO) was “significantly greater than vehicle treated”. For the same molecule, the “increase in glucose uptake in myoblasts relative to fibroblasts” value ([3]; C2C12 myoblasts versus MEF fibroblasts) was about 4 × and the “glucose uptake relative to insulin” value ([3]; myoblasts (C2C12), at most concentrations tested / equal concentrations, dihydrate) was “significantly more glucose uptake relative to insulin; also recorded: exceeded the uptake induced by insulin”.
